Laboratory results as given in ChEMBL document CHEMBL5154804, “Species-Selective Targeting of Fungal Hsp90: Design, Synthesis, and Evaluation of Novel 4,5-Diarylisoxazole Derivatives for the Combination Treatment of Azole-Resistant Candidiasis” (J Med Chem, 2022).

Key:
Candida albicans [1] = test: Synergistic antifungal activity against fluconazole-resistant Candida albicans 901 assessed as inhibition of fungal growth in presence of fluconazole by checker board microdilution assay; format: functional
Candida albicans [2] = test: Synergistic antifungal activity against fluconazole-resistant Candida albicans 904 assessed as inhibition of fungal growth in presence of fluconazole by checker board microdilution assay; format: functional
Candida albicans [3] = test: Synergistic antifungal activity against fluconazole-resistant Candida albicans 632 assessed as inhibition of fungal growth in presence of fluconazole by checker board microdilution assay; format: functional
Candida albicans [4] = test: Synergistic antifungal activity against fluconazole-resistant Candida albicans 100 assessed as inhibition of fungal growth in presence of fluconazole by checker board microdilution assay; format: functional
Candida albicans [5] = test: Synergistic antifungal activity against fluconazole-resistant Candida albicans 103 assessed as inhibition of fungal growth in presence of fluconazole by checker board microdilution assay; format: functional
Candida albicans [6] = test: Synergistic antifungal activity against fluconazole-resistant Candida albicans 311 assessed as inhibition of fungal growth in presence of fluconazole by checker board microdilution assay; format: functional
Candida albicans [7] = test: Antifungal activity against fluconazole-resistant Candida albicans 901 assessed as inhibition of fungal growth by checker board microdilution assay; format: functional
Candida albicans [8] = test: Antifungal activity against fluconazole-resistant Candida albicans 904 assessed as inhibition of fungal growth by checker board microdilution assay; format: functional
Candida albicans [9] = test: Antifungal activity against fluconazole-resistant Candida albicans 632 assessed as inhibition of fungal growth by checker board microdilution assay; format: functional
Candida albicans [10] = test: Antifungal activity against fluconazole-resistant Candida albicans 100 assessed as inhibition of fungal growth by checker board microdilution assay; format: functional
Candida albicans [11] = test: Antifungal activity against fluconazole-resistant Candida albicans 103 assessed as inhibition of fungal growth by checker board microdilution assay; format: functional
Candida albicans [12] = test: Antifungal activity against fluconazole-resistant Candida albicans 311 assessed as inhibition of fungal growth by checker board microdilution assay; format: functional
Candida albicans [13] = test: Synergetic antifungal activity against fluconazole-resistant Candida albicans 901 assessed as fractional inhibitory concentration index in presence of fluconazole by checker board microdilution assay; format: functional
Candida albicans [14] = test: Synergetic antifungal activity against fluconazole-resistant Candida albicans 904 assessed as fractional inhibitory concentration index in presence of fluconazole by checker board microdilution assay; format: functional
Candida albicans [15] = test: Synergetic antifungal activity against fluconazole-resistant Candida albicans 632 assessed as fractional inhibitory concentration index in presence of fluconazole by checker board microdilution assay; format: functional
Candida albicans [16] = test: Synergetic antifungal activity against fluconazole-resistant Candida albicans 100 assessed as fractional inhibitory concentration index in presence of fluconazole by checker board microdilution assay; format: functional
Candida albicans [17] = test: Synergetic antifungal activity against fluconazole-resistant Candida albicans 103 assessed as fractional inhibitory concentration index in presence of fluconazole by checker board microdilution assay; format: functional
Candida albicans [18] = test: Synergetic antifungal activity against fluconazole-resistant Candida albicans 311 assessed as fractional inhibitory concentration index in presence of fluconazole by checker board microdilution assay; format: functional
A549 = test: Cytotoxicity against human A549 cell assessed as inhibition of cell growth after 24 hrs by MTT assay; format: functional, cell-based; conditions: A549, 24 h
MCF7 = test: Cytotoxicity against human MCF7 cell assessed as inhibition of cell growth after 24 hrs by MTT assay; format: functional, cell-based; conditions: MCF7, 24 h
HepG2 = test: Cytotoxicity against human HepG2 cell assessed as inhibition of cell growth after 24 hrs by MTT assay; format: functional, cell-based; conditions: HepG2, 24 h
[19] = Cytotoxicity against human THLE-2 cell assessed as inhibition of cell growth after 24 hrs by MTT assay; format: toxicity, cell-based; conditions: THLE-2 cells
[20] = Cytotoxicity against human BEAS-2B cell assessed as inhibition of cell growth after 24 hrs by MTT assay; format: toxicity, cell-based; conditions: BEAS-2B cells
[21] = Cytotoxicity against mouse NIH3T3 cell assessed as inhibition of cell growth after 24 hrs by MTT assay; format: toxicity, cell-based; conditions: NIH3T3 cells
RAW264.7 = test: Cytotoxicity against mouse RAW264.7 cell assessed as inhibition of cell growth after 24 hrs by MTT assay; format: functional, cell-based; conditions: RAW264.7, 24 h
[22] = Cytotoxicity against mouse BV-2 cell assessed as inhibition of cell growth after 24 hrs by MTT assay; format: toxicity, cell-based; conditions: BV-2 cells
[23] = Metabolic stability in human liver microsomes assessed as half life in presence of NADPH cofactor under shaking condition for 10 mins measured after 5 to 60 mins by LC-MS/MS analysis; format: ADME, Microsome; conditions: time 15-70 min
[24] = Metabolic stability in human liver microsomes assessed as microsomal intrinsic clearance in presence of NADPH cofactor under shaking condition for 10 mins measured after 5 to 60 mins by LC-MS/MS analysis; format: ADME, Microsome; conditions: time 15-70 min
[25] = Metabolic stability in human liver microsomes assessed as intrinsic clearance in presence of NADPH cofactor under shaking condition for 10 mins measured after 5 to 60 mins by LC-MS/MS analysis; format: ADME, Microsome; conditions: time 15-70 min
[26] = Metabolic stability in human liver microsomes assessed as compound remaining in presence of NADPH cofactor under shaking condition for 10 mins measured after 60 mins by LC-MS/MS analysis; format: ADME, Microsome; conditions: time 70 min, read-out: Stability
[27] = Stability in human plasma assessed as compound remaining at 120 mins by LC-MS/MS analysis; format: ADME, cell-free; conditions: read-out: Stability
[28] = Stability in human plasma assessed as half life at 120 mins by LC-MS/MS analysis; format: ADME, cell-free
CYP1A2 = target: T1, CYP1A2 (Homo sapiens, UniProt P05177); test: Inhibition of CYP1A2 in human liver microsome at 10 uM using phenacetin as substrate incubated for 10 mins in presence of NADPH cofactor by LC-MS/MS analysis; format: ADME; conditions: liver microsomes, probe phenacetin
T1 sequence (P05177 whole entry): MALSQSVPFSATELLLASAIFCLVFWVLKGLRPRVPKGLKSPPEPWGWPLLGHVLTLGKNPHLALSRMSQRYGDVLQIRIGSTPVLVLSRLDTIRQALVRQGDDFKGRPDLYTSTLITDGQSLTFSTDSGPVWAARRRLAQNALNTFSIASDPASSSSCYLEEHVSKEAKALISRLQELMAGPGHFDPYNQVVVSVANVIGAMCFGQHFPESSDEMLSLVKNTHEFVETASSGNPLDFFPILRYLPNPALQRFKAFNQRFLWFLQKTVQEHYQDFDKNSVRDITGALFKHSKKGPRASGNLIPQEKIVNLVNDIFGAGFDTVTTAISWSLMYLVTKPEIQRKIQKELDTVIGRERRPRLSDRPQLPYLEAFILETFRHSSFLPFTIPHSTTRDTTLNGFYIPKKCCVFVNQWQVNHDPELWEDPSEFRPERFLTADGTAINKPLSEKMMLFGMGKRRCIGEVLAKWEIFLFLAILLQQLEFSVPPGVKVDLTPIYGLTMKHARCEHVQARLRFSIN

CYP2C9 = CYP2C9 (Homo sapiens, UniProt P11712); test: Inhibition of CYP2C9 in human liver microsome at 10 uM using diclofenac as substrate incubated for 10 mins in presence of NADPH cofactor by LC-MS/MS analysis; format: ADME; conditions: liver microsomes, probe diclofenac
Sequence of CYP2C9 (P11712 whole entry): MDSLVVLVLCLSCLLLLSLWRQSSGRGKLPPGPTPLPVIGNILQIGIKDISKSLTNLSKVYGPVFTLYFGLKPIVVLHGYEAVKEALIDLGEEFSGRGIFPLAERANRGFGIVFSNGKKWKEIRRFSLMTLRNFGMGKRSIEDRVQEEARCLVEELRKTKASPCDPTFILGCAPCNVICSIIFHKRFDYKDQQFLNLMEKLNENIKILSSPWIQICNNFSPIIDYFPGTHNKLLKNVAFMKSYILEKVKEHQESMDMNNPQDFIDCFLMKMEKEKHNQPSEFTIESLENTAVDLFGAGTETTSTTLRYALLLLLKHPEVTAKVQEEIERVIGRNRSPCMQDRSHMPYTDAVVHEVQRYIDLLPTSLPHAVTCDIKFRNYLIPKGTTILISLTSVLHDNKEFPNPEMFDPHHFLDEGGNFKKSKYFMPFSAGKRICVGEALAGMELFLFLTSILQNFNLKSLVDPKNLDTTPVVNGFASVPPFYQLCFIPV

CYP2C19 = CYP2C19 (Homo sapiens, UniProt P33261); test: Inhibition of CYP2C19 in human liver microsome at 10 uM using S-mephenytoin as substrate incubated for 10 mins in presence of NADPH cofactor by LC-MS/MS analysis; format: ADME; conditions: liver microsomes, probe S-mephenytoin
Sequence of CYP2C19 (P33261 whole entry): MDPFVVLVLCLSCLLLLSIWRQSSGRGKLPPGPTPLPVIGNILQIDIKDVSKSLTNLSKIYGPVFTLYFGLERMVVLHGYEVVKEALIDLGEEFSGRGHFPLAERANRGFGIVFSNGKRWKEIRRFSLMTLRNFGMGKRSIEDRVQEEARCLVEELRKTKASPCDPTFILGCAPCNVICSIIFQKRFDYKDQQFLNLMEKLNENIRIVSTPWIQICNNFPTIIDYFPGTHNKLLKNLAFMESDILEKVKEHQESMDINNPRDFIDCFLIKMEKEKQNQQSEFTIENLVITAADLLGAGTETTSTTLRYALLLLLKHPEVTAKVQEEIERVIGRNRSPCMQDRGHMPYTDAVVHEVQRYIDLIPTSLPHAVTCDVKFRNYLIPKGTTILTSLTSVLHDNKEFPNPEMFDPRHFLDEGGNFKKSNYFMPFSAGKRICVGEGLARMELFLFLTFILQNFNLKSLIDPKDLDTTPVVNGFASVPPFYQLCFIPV

CYP2D6 = CYP2D6 (Homo sapiens, UniProt P10635); test: Inhibition of CYPD6 in human liver microsome at 10 uM using dextromethorphan as substrate incubated for 10 mins in presence of NADPH cofactor by LC-MS/MS analysis; format: ADME; conditions: liver microsomes, probe dextromethorphan
Sequence of CYP2D6 (P10635 whole entry): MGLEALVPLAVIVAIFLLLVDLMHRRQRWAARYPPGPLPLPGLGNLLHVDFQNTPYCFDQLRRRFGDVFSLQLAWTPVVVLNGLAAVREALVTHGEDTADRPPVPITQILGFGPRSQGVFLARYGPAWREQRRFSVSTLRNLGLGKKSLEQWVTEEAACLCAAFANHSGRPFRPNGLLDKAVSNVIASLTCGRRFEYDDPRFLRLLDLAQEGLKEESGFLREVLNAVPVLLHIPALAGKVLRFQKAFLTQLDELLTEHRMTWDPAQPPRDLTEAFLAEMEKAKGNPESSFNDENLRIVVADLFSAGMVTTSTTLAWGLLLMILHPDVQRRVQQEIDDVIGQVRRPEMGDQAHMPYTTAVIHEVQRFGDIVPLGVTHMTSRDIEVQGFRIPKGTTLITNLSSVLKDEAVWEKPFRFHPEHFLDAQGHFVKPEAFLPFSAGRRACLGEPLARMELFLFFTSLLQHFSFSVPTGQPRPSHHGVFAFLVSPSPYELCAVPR

CYP3A4 = CYP3A4 (Homo sapiens, UniProt P08684); test: Inhibition of CYP3A4 in human liver microsome at 10 uM using midazolam as substrate incubated for 10 mins in presence of NADPH cofactor by LC-MS/MS analysis; format: ADME; conditions: liver microsomes, probe midazolam
Sequence of CYP3A4 (P08684 whole entry): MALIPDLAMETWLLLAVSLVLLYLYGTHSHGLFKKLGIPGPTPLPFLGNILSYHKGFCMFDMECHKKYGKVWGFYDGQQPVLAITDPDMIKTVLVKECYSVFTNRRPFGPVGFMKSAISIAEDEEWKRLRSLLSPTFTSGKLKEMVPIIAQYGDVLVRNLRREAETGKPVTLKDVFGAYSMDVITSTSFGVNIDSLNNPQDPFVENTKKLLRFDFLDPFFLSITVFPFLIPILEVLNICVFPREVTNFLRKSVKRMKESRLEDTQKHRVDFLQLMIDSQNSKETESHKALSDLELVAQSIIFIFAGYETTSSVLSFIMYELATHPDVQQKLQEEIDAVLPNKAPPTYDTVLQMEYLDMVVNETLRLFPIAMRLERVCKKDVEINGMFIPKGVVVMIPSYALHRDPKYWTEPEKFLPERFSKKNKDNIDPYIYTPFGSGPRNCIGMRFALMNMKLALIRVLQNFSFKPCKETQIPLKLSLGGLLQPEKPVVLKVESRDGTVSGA

Candida albicans [29] = test: Potentiation of fluconazole-induced antifungal activity against fluconazole-resistant Candida albicans 901 assessed as fluconazole MIC by checker board microdilution assay; format: functional
Candida albicans [30] = test: Potentiation of fluconazole-induced antifungal activity against fluconazole-resistant Candida albicans 904 assessed as fluconazole MIC by checker board microdilution assay; format: functional
Candida albicans [31] = test: Potentiation of fluconazole-induced antifungal activity against fluconazole-resistant Candida albicans 632 assessed as fluconazole MIC by checker board microdilution assay; format: functional
Candida albicans [32] = test: Potentiation of fluconazole-induced antifungal activity against fluconazole-resistant Candida albicans 100 assessed as fluconazole MIC by checker board microdilution assay; format: functional
Candida albicans [33] = test: Potentiation of fluconazole-induced antifungal activity against fluconazole-resistant Candida albicans 103 assessed as fluconazole MIC by checker board microdilution assay; format: functional
Candida albicans [34] = test: Potentiation of fluconazole-induced antifungal activity against fluconazole-resistant Candida albicans 311 assessed as fluconazole MIC by checker board microdilution assay; format: functional

CNC(=O)c1noc(-c2cc(-c3ccc(C)cc3)c(O)cc2O)c1-c1ccc(CN2CCCCC2)cc1
MIC80 (Candida albicans [1]): 0.25 µg/mL
MIC80 (Candida albicans [2]): 0.125 µg/mL
MIC80 (Candida albicans [3]): 2 µg/mL
MIC80 (Candida albicans [4]): 1 µg/mL
MIC80 (Candida albicans [5]): 0.5 µg/mL
MIC80 (Candida albicans [6]): 0.5 µg/mL
MIC80 (Candida albicans [7]): > 64 µg/mL
MIC80 (Candida albicans [8]): > 64 µg/mL
MIC80 (Candida albicans [9]): > 64 µg/mL
MIC80 (Candida albicans [10]): > 64 µg/mL
MIC80 (Candida albicans [11]): > 64 µg/mL
MIC80 (Candida albicans [12]): > 64 µg/mL
fractional inhibitory concentration index (FICI) (Candida albicans [13]): 0.02
fractional inhibitory concentration index (FICI) (Candida albicans [14]): 0.01
fractional inhibitory concentration index (FICI) (Candida albicans [15]): 0.062
fractional inhibitory concentration index (FICI) (Candida albicans [16]): 0.047
fractional inhibitory concentration index (FICI) (Candida albicans [17]): 0.039
fractional inhibitory concentration index (FICI) (Candida albicans [18]): 0.023
IC50 (A549): 10.8 µM
IC50 (MCF7): 15.6 µM
IC50 (HepG2): 24.9 µM
IC50 at 24 h [19]: 2.79 µM
IC50 at 24 h [20]: 11.6 µM
IC50 at 24 h [21]: 0.46 µM
IC50 (RAW264.7): 3.65 µM
IC50 at 24 h [22]: 3.04 µM
half-life [23]: 0.722 h
CLint [24]: 32 µL/min/mg
CLint [25]: 28.8 mL/min/kg
remaining at 1.167 h [26]: 38.3%
remaining at 2 h [27]: 55.2%
half-life [28]: 2.18 h
inhibition at 10 min, 10 µM (CYP1A2): 17.7%
inhibition at 10 min, 10 µM (CYP2C9): 44.6%
inhibition at 10 min, 10 µM (CYP2C19): 48.5%
inhibition at 10 min, 10 µM (CYP2D6): 24.8%
inhibition at 10 min, 10 µM (CYP3A4): 17.7%
MIC80 (Candida albicans [29]): 1 µg/mL
MIC80 (Candida albicans [30]): 0.5 µg/mL
MIC80 (Candida albicans [31]): 2 µg/mL
MIC80 (Candida albicans [32]): 2 µg/mL
MIC80 (Candida albicans [33]): 2 µg/mL
MIC80 (Candida albicans [34]): 1 µg/mL
